Positions of bridges follow the written chain, without caps; N, C: chain ends. Non-standard residues stand in square brackets, D forms with d. Residues, ends and D or L forms follow the SMILES beside them. Groups on a side chain read outwards from the residue. *: point of attachment. C18 diacid = O=C(O)CCCCCCCCCCCCCCCCC(=O)*; Dip = N[C@H](C(=O)O)C(c1ccccc1)c1ccccc1; NMeF = CN[C@@H](Cc1ccccc1)C(=O)O; β3hF = N[C@H](CC(=O)O)Cc1ccccc1; NMeK = CN[C@@H](CCCCN)C(=O)O; Tle = CC(C)(C)[C@H](N)C(=O)O; Isovaleryl = CC(C)CC(=O)*; Dap = NC[C@H](N)C(=O)O; AEEA = NCCOCCOCC(=O)O
Legend:
ferroportin [1] = target: T1, ferroportin (Homo sapiens, UniProt Q9NP59); test: T47D cell-based ferroportin internalization assay in presence of mouse serum albumin (MSA); set-up: a human breast carcinoma adherent cell line which endogenously expresses ferroportin; host or cells: T47D; settings: T47D internalization assay in presence of mouse serum albumin (MSA); Table 6E
T1 sequence (Q9NP59 1-571): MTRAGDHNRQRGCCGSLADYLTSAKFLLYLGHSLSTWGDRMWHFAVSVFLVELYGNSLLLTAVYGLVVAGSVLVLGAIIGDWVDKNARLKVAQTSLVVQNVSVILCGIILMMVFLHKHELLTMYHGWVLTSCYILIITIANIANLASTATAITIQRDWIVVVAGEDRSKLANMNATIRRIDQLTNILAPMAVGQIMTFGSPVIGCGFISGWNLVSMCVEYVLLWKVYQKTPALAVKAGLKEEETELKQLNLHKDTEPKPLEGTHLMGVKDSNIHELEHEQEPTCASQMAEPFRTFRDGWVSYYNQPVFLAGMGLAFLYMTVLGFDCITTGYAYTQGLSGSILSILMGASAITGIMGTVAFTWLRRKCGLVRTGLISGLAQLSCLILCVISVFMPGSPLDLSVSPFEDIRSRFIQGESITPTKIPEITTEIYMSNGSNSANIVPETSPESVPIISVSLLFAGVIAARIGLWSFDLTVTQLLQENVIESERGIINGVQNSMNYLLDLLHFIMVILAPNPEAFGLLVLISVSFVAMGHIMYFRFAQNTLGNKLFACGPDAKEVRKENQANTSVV
Procedure, shortened: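 Peptide potency for inducing ferroportin internalization was measured in T47D cells in the presence of serum albumin. Cells grown in RPMI with fetal bovine serum were seeded in 96-well plates at 80-100 k cells per well in 100 ul and rested overnight. Dilution series of test peptides were preincubated 30 min at room temperature, then added to the cells after the medium was aspirated.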

ferroportin [2] = target: T1, ferroportin; test: FPN activity assay: ferroportin-GFP internalization/degradation in HEK293 cells; assay type: cell-based; set-up: expressed in transfected cells; settings: ferroportin-GFP internalization/degradation, HEK293 cells; Table 6E; read-out: FPN IC50
Method: Following internalization, the ferroporin protein is degraded.
A retro inverse peptide is a peptide with a reversed sequence in all D amino acids. An example is that Hy-Glu-Thr-His-NH2 becomes Hy-DHis-DThr-DGlu-NH2. The EC50 of these reference compounds for ferroportin internalization/degradation was determined according to the FPN activity assay described above. These peptides served as control standards.

| IC50 (ferroportin [1]) [nM] | DC50 (ferroportin [2]) [nM] | SMILES |
| --- | --- | --- |
| 10 to 100 | 10 to 100 | CC(C)CC(=O)N[C@@H](CCC(=O)O)C(=O)N[C@H](C(=O)N[C@@H](Cc1c[nH]cn1)C(=O)N[C@H](C(=O)N1CCC[C@H]1C(=O)N[C@H]1CSSC[C@@H](C(=O)N(C)[C@@H](CCCCNC(=O)COCCOCCNC(=O)COCCOCCNC(=O)[C@H](CN)NC(=O)CCCCCCCCCCCCCCCCC(=O)O)C(=O)N(C)[C@@H](Cc2ccccc2)C(=O)N[C@H](CCCCN)C(N)=O)NC1=O)C(c1ccccc1)c1ccccc1)[C@@H](C)O [compound 291] (Isovaleryl-ETH[Dip]PCC[NMeK]([AEEA-AEEA-Dap-C18 diacid])[NMeF][dK]-NH2; disulfide 6-7) |
| 10 to 100 | 1 to 10 | CC(C)CC(=O)N[C@@H](CCC(=O)O)C(=O)N[C@H](C(=O)N[C@@H](Cc1c[nH]cn1)C(=O)N[C@H](C(=O)N1CCC[C@H]1C(=O)N[C@H]1CSSC[C@@H](C(=O)N(C)[C@@H](CCCCNC(=O)COCCOCCNC(=O)COCCOCCNC(=O)[C@H](CN)NC(=O)CCCCCCCCCCCCCCCCC(=O)O)C(=O)N[C@H](C(=O)N[C@H](CCCCN)C(N)=O)C(c2ccccc2)c2ccccc2)NC1=O)C(c1ccccc1)c1ccccc1)[C@@H](C)O [compound 293] (Isovaleryl-ETH[Dip]PCC[NMeK]([AEEA-AEEA-Dap-C18 diacid])[Dip][dK]-NH2; disulfide 6-7) |
| 10 to 100 | 10 to 100 | CC(C)CC(=O)N[C@@H](CCC(=O)O)C(=O)N[C@H](C(=O)N[C@@H](Cc1c[nH]cn1)C(=O)N[C@H](C(=O)N1CCC[C@H]1C(=O)N[C@H]1CSSC[C@@H](C(=O)N(C)[C@@H](CCCCNC(=O)COCCOCCNC(=O)COCCOCCNC(=O)[C@H](CN)NC(=O)CCCCCCCCCCCCCCCCC(=O)O)C(=O)N[C@H](CC(N)=O)Cc2ccccc2)NC1=O)C(c1ccccc1)c1ccccc1)[C@@H](C)O [compound 295] (Isovaleryl-ETH[Dip]PCC[NMeK]([AEEA-AEEA-Dap-C18 diacid])[β3hF]-NH2; disulfide 6-7) |

The remaining lines, values behind:

| SMILES | IC50 (ferroportin [1]) [nM] | DC50 (ferroportin [2]) [nM] |
| --- | --- | --- |
| CC(C)CC(=O)N[C@@H](CCC(=O)O)C(=O)N[C@H](C(=O)N[C@@H](Cc1c[nH]cn1)C(=O)N[C@H](C(=O)N1CCC[C@H]1C(=O)N[C@H]1CSSC[C@@H](C(=O)N(C)[C@@H](CCCCNC(=O)COCCOCCNC(=O)COCCOCCNC(=O)[C@H](CN)NC(=O)CCCCCCCCCCCCCCCCC(=O)O)C(=O)N[C@H](CC(=O)N[C@H](C(N)=O)C(C)(C)C)Cc2ccccc2)NC1=O)C(c1ccccc1)c1ccccc1)[C@@H](C)O [compound 290] (Isovaleryl-ETH[Dip]PCC[NMeK]([AEEA-AEEA-Dap-C18 diacid])[β3hF][Tle]-NH2; disulfide 6-7) | 10 to 100 | 10 to 100 |
| CC(C)CC(=O)N[C@@H](CCC(=O)O)C(=O)N[C@H](C(=O)N[C@@H](Cc1cnc[nH]1)C(=O)N[C@H](C(=O)N1CCC[C@H]1C(=O)N[C@H]1CSSC[C@@H](C(=O)N(C)[C@@H](CCCCNC(=O)COCCOCCNC(=O)COCCOCCNC(=O)[C@H](CN)NC(=O)CCCCCCCCCCCCCCCCC(=O)O)C(=O)N[C@H](CC(=O)N(C)[C@@H](CCCCN)C(N)=O)Cc2ccccc2)NC1=O)C(c1ccccc1)c1ccccc1)[C@@H](C)O [compound 292] (Isovaleryl-ETH[Dip]PCC[NMeK]([AEEA-AEEA-Dap-C18 diacid])[β3hF][NMeK]-NH2; disulfide 6-7) | 1 to 10 | 10 to 100 |
| CC(C)CC(=O)N[C@@H](CCC(=O)O)C(=O)N[C@H](C(=O)N[C@@H](Cc1c[nH]cn1)C(=O)N[C@H](C(=O)N1CCC[C@H]1C(=O)N[C@H]1CSSC[C@@H](C(=O)N(C)[C@@H](CCCCNC(=O)COCCOCCNC(=O)COCCOCCNC(=O)[C@H](CN)NC(=O)CCCCCCCCCCCCCCCCC(=O)O)C(N)=O)NC1=O)C(c1ccccc1)c1ccccc1)[C@@H](C)O [compound 294] (Isovaleryl-ETH[Dip]PCC[NMeK]([AEEA-AEEA-Dap-C18 diacid])-NH2; disulfide 6-7) | 10 to 100 | 10 to 100 |

From US20250277012A1 (Protagonist Therapeutics, Inc., priority 2021, published 2025)
